Source: patent US11883387B2, “PqsR inverse agonists” (HELMHOLTZ-ZENTRUM FÜR INFEKTIONSFORSCHUNG GMBH, priority 2018, dated 2024)
Converted amounts (≈) assume the structure as drawn. Like-named read-outs stand apart in the source and are kept apart here.

Experiments:
pyocyanin production = conditions: in cellulo; read-out: inhibition of virulence factor pyocyanin production IC50; cited from earlier work
[1] = test system: production of signal molecules HHQ and PQS; conditions: cited from earlier work
PqsR [2] = biological target: T1, PqsR (Pseudomonas aeruginosa, UniProt Q9I4X0); design: host or cells: P. aeruginosa; conditions: read-out: IC50 in P. aeruginosa reporter gene assay; cited from earlier work
T1 sequence (Q9I4X0 whole entry): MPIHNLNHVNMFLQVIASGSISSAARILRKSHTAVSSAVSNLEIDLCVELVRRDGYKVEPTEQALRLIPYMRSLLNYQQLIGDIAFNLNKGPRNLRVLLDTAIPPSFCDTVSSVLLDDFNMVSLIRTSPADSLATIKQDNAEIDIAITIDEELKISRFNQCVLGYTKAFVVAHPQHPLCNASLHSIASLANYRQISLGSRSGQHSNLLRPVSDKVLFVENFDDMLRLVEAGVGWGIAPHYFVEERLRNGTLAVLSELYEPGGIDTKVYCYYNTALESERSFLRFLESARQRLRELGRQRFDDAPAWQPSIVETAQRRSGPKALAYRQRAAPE

PqsR [3] = biological target: T1, PqsR; design: expressed in transfected cells; host or cells: Escherichia coli DH5α; conditions: read-out: IC50 in E. coli reporter gene assay; cited from earlier work
PqsR [4] = biological target: T1, PqsR; test: E. coli based β-galactosidase reporter gene assay (PqsR inverse agonistic activity); format: cell-based; design: expressed in transfected cells; host or cells: Escherichia coli DH5α
Outline: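 E. coli DH5α carrying pEAL08-2 (tac-driven pqsR with pqsA-lacZ) was grown to OD600 0.2 and incubated with 0.001–10 μM compound plus 50 nM PQS for 2.5 h at 37 °C. β-Galactosidase activity was measured by ONPG conversion in permeabilized cells and normalized between the no-PQS and solvent controls. IC50 came from concentration variation.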

HEK293 cells = test: Cytotoxicity (MTT) toward HEK293; format: cell-based; conditions: Homo sapiens, 48 h, upper class: or at solubility maximum, read-out: IC50-value towards HEK293
Experimental: (§1) To obtain information regarding the toxicity of our compounds, their impact on the viability of human cells was investigated. HepG2 and HEK293 cells (2×10^5 per well) were seeded in 24-well, flat-bottomed culture plates. 24 h after seeding the cells the incubation was started by the addition of compounds in a final DMSO concentration of 1%. The living cell mass was determined 48 h after treatment with compounds by adding 0.1 volumes of 3-(4,5-dimethylthiazol-2-yl)-2,5-diphenyltetrazolium bromide (MTT) solution (5 mg per mL sterile PBS) (Sigma, St. Louis, MO) to the wells. After incubating the cells for 30 min at 37° C. (atmosphere containing 5% CO2), MTT crystals were dissolved in a solution containing 10% SDS and 0.5% acetic acid in DMSO. The optical density (OD) of the samples was determined photometrically at 570 nm in a FLUOstar Omega plate reader (BMG labtech, Ortenberg, Germany). To obtain inhibition values for each sample, their ODs were related to those of DMSO controls.

[5] = test system: P. aeruginosa pyocyanin production; test: Pyocyanin assay; format: cell-based, P. aeruginosa PA14; conditions: Pseudomonas aeruginosa, PA14, 16 h, read-out: IC50-value towards pyocyanin production, PA14 in PPGAS medium, 16 h
Outline: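 PA14 in PPGAS medium from OD600 0.02 grown 16 h at 37 °C, 200 rpm, with compounds. Pyocyanin extracted with chloroform, back-extracted into 0.2 M HCl, OD520 normalised to OD600.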

[6] = Kinetic Turbidimetric Aqueous Solubility at room temperature for 5 min; format: physicochemical; conditions: PBS buffer, kinetic from dmso stock, 2% DMSO
Outline: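 Compound diluted in PBS across typically 0.4–200 μM (final DMSO 2%), held 5 min at room temperature. Turbidity read as absorbance at 620 nm against vehicle control. Four-parameter sigmoidal fit of normalized absorbances with AUC calculation gives Log S.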

[7] = Turbidimetric Aqueous Solubility at 37° C. for 2 h; format: physicochemical; conditions: aqueous buffer, kinetic from dmso stock, 1% DMSO in buffer, estimated precipitation range
Experimental: Turbidimetric Aqueous Solubility at 37° C. for 2 h. Test compound was diluted in buffer to give a range of concentrations (typically 1, 3, 10, 30 and 100 μM, final DMSO concentration 1%) and incubated at 37° C. for 2 hr. Absorbance was measured at a wavelength of 620 nm and the solubility was estimated from the concentration of test compound that produces an increase in absorbance above the vehicle control (i.e., 1% DMSO in buffer). An estimated precipitation range (lower and upper bound) was provided as result.

[8] = Metabolic stability against human hepatic S9 fraction; format: in vitro ADME
Experimental: For the evaluation of combined phase I and phase II metabolic stability, the compound (1 μM) was incubated with 1 mg/mL pooled human liver S9 fraction (BD Gentest), 2 mM NADPH regenerating system, 1 mM UDPGA, 10 mM MgCl2 and 0.1 mM PAPS at 37° C. for 0, 5, 15, 30 and 60 min. The metabolic stability of Testosterone (1 μM) and 7-hydroxycoumarin (1 μM) were determined in parallel to confirm the enzymatic activity of the S9 fraction. The incubation was stopped by precipitation of S9 enzymes with 2 volumes of cold acetonitrile containing internal standard (750 nM Diphenhydramine). Samples were stored on ice for 10 min and precipitated protein was removed by centrifugation (10 min, 4° C., 17,000 g). Concentration of the remaining test compound at the different time points was analyzed by LC-MS/MS (TSQ Quantum Access MAX, Thermo Fisher, Dreieich, Germany) and used to determine half-life (t/2).

[9] = test system: P. aeruginosa PA14 biofilm; test: Biofilm assay, crystal violet staining (biofilm mass); format: cell-based; conditions: Pseudomonas aeruginosa, PA14, PPGAS medium, read-out: IC50-value towards biofilm formation
Experimental: Commonly used crystal violet (CV) assay procedures (PMID: 3905855, PMID: 10547784, PMID: 22488868) were adapted for determination of biofilm mass. For the cultivation of biofilm in 96 well plates, the protocol described by Frei et al. (PMID: 22488868) was slightly modified by replacement of medium and Pseudomonas strain used. The experiment was performed using P. aeruginosa PA14 strain and PPGAS medium. CV staining was used to detect compound effects on the overall biofilm biomass. Impact on eDNA was assessed by incubation of biofilm with propidium iodine solution (0.05 mg ml^−1) for 24 h and detection of specific florescence at 620 nm (excitation 544 nm) after a thorough washing step with 18 MΩ H2O. (PMID: 16430688)

[10] = Metabolic stability in mouse liver microsomes (MLM); format: in vitro ADME; conditions: 1 μM compound, 0.5 mg/mL MLM, 1 mM NADPH, 37° C., read-out: half-life (t1/2) towards MLM
Outline: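 Phase I stability: 1 μM compound incubated at 37° C with 0.5 mg/mL mouse liver microsomes and 1 mM NADPH, sampled at 0-30 min and quenched in acetonitrile. Remaining parent measured by HPLC-MS/MS to derive half-life.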

HepG2 cells = test: Cytotoxicity (MTT) toward HepG2; format: cell-based; conditions: Homo sapiens, 48 h, upper class: or at solubility maximum, read-out: IC50-value towards HepG2
Experimental: as §1

[11] = pooled human liver S9 fraction, 1 μM compound, 1 mg/mL pooled human liver S9, phase I and II cofactors, 37° C., read-out: half-life (t1/2) towards human hepatic S9 fraction

CCCCCCCc1[nH]c2ccc([N+](=O)[O-])cc2c(=O)c1C(N)=O [2-heptyl-6-nitro-4-oxo-1,4-dihydroquinoline-3-carboxamide]
IC50 (pyocyanin production): 2000 nM | reduction of HHQ production ([1]; at 15 μM): 54% | reduction of PQS production ([1]; at 15 μM): 37% | IC50 (PqsR [2]): 400 nM | IC50 (PqsR [3]): 35 nM

Nc1cccc(F)c1C(=O)O [Compound 6FABA]
IC50 ([1]; inhibitor targeting the enzyme PqsA, read-out: IC50 for reduction of production of signal molecules HHQ and PQS): ~100 µM

FC(F)(F)Oc1ccc(-n2cc(CNc3ccnc(C(F)(F)F)c3)nn2)cc1 [Compound 012, N-((1-(4-(Trifluoromethoxy)phenyl)-1H-1,2,3-triazol-4-yl)methyl)-2-(trifluoromethyl)pyridin-4-amine]
IC50 (PqsR [4]): ≤ 50 nM | IC50 (HEK293 cells): 25 to 50 µM | IC50 [5]: 1000 to 5000 nM

COc1ccc(-n2cc(CNc3ccnc(C(F)(F)F)c3)nn2)cc1Cl [Compound 017, N-((1-(3-chloro-4-methoxyphenyl)-1H-1,2,3-triazol-4-yl)methyl)-2-(trifluoromethyl)pyridin-4-amine]
IC50 (PqsR [4]): ≤ 50 nM | solubility at 5 min [6]: > 50 µM | solubility at 2 h [7]: 10 to 30 µM (≈ 3.84 to 11.5 µg/mL) | half-life at 1 μM [8, 11]: 41 to 60 min | IC50 [9]: ≤ 500 nM | IC50 [5]: 251 to 1000 nM

FC(F)(F)Oc1ccc(-n2cc(CNc3ccnc(C(F)(F)F)c3)nn2)cc1Cl [Compound 022, N-((1-(3-Chloro-4-(trifluoromethoxy)phenyl)-1H-1,2,3-triazol-4-yl)methyl)-2-(trifluoromethyl) pyridin-4-amine]
IC50 (PqsR [4]): ≤ 50 nM | solubility at 5 min [6]: > 25 µM | IC50 (HEK293 cells): 25 to 50 µM | half-life at 1 μM [10]: 31 to 60 min | IC50 [5]: 251 to 1000 nM | IC50 (HepG2 cells): 25 to 50 µM

Fc1cc(-n2cc(CNc3ccnc(C(F)(F)F)c3)nn2)ccc1Oc1ccccc1 [Compound 028, N-((1-(3-fluoro-4-phenoxyphenyl)-1H-1,2,3-triazol-4-yl)methyl)-2-(trifluoromethyl)pyridin-4-amine]
IC50 (PqsR [4]): ≤ 50 nM | IC50 (HEK293 cells): 25 to 50 µM | IC50 [5]: 251 to 1000 nM | IC50 (HepG2 cells): 25 to 50 µM

FC(F)(F)c1cc(NCc2cnc(-c3ccc(Oc4ccccc4)cc3)s2)ccn1 [Compound 071, N-((2-(4-Phenoxyphenyl)thiazol-5-yl)methyl)-2-(trifluoromethyl)pyridin-4-amine]
IC50 (PqsR [4]): ≤ 50 nM | IC50 (HEK293 cells): 25 to 50 µM | half-life at 1 μM ([8]; human, s9): > 60 min | IC50 [5]: 251 to 1000 nM | IC50 (HepG2 cells): 25 to 50 µM

FC(F)(F)c1cc(NCc2csc(-c3ccc(Oc4ccccc4)cc3)n2)ccn1 [Compound 080, N-((2-(4-Phenoxyphenyl)thiazol-4-yl)methyl)-2-(trifluoromethyl)pyridin-4-amine]
IC50 (PqsR [4]): ≤ 50 nM | solubility at 5 min [6]: > 10 µM | IC50 (HEK293 cells): 25 to 50 µM | IC50 [5]: 1000 to 5000 nM | IC50 (HepG2 cells): 25 to 50 µM

FC(F)(F)c1cc(NCc2ccc(-c3ccc(Oc4ccccc4)cc3)cn2)ccn1 [Compound 097, N-((5-(4-phenoxyphenyl)pyridin-2-yl)methyl)-2-(trifluoromethyl)pyridin-4-amine]
IC50 (PqsR [4]): 51 to 250 nM | solubility at 5 min [6]: > 10 µM | IC50 (HEK293 cells): 25 to 50 µM | IC50 [5]: 251 to 1000 nM | IC50 (HepG2 cells): 25 to 50 µM

CC(C)Oc1ccc(-c2ncc(CNc3ccnc(C(F)(F)F)c3)cn2)cc1Cl [Compound 108, N-((2-(3-Chloro-4-isopropoxyphenyl)pyrimidin-5-yl)methyl)-2-(trifluoromethyl)pyridin-4-amine]
IC50 (PqsR [4]): ≤ 50 nM | solubility at 5 min ([6]; aqueous buffer): > 25 µM | solubility at 2 h [7]: 10 to 30 µM (≈ 4.23 to 12.7 µg/mL) | IC50 [5]: ≤ 250 nM

Fc1cc2nc(CSc3ccnc(C(F)(F)F)c3)[nH]c2cc1F [Compound 122, 5,6-Difluoro-2-(((2-(trifluoromethyl)pyridin-4-yl)thio)methyl)-1H-benzo[d]imidazole]
IC50 (PqsR [4]): 251 to 1000 nM | solubility at 5 min [6]: ≥ 100 µM | IC50 (HEK293 cells): ≥ 50 µM | IC50 (HepG2 cells): ≥ 50 µM

FC(F)(F)c1cc(SCc2nc3cc(Oc4ccccc4)ccc3[nH]2)ccn1 [Compound 127, 5-Phenoxy-2-(((2-(trifluoromethyl)pyridin-4-yl)thio)methyl)-1H-benzo[d]imidazole]
IC50 (PqsR [4]): ≤ 50 nM | solubility at 5 min [6]: > 10 µM | IC50 (HEK293 cells): 25 to 50 µM | IC50 [5]: ≤ 250 nM | IC50 (HepG2 cells): 25 to 50 µM

Cc1cccc(Oc2ccc3[nH]c(CSc4cc(N)nc(C(F)(F)F)n4)nc3c2)c1 [Compound 128, 6-(((5-(m-Tolyloxy)-1H-benzo[d]imidazol-2-yl)methyl)thio)-2-(trifluoromethyl)pyrimidin-4-amine]
IC50 (PqsR [4]): ≤ 50 nM | solubility at 5 min [6]: > 25 µM | IC50 (HEK293 cells): 25 to 50 µM | IC50 (HepG2 cells): 25 to 50 µM

Nc1cc(SCc2nc3cc(Oc4cccc(F)c4)ccc3[nH]2)nc(C(F)(F)F)n1 [Compound 129, 6-(((5-(3-Fluorophenoxy)-1H-benzo[d]imidazol-2-yl)methyl)thio)-2-(trifluoromethyl)pyrimidin-4-amine]
IC50 (PqsR [4]): ≤ 50 nM | IC50 (HEK293 cells): 25 to 50 µM | half-life at 1 μM [10]: 31 to 60 min | IC50 (HepG2 cells): 25 to 50 µM

FC(F)(F)c1cc(SCc2nc3ccc(Oc4ccccc4)cc3o2)ccn1 [Compound 132, 6-Phenoxy-2-(((2-(trifluoromethyl)pyridin-4-yl)thio)methyl)benzo[d]oxazole]
IC50 (PqsR [4]): 51 to 250 nM | IC50 (HEK293 cells): 25 to 50 µM | solubility at 2 h [7]: 10 to 30 µM (≈ 4.02 to 12.1 µg/mL) | half-life at 1 μM [8, 11]: > 60 min | IC50 [5]: 251 to 1000 nM
